Common to all, as to type: cell-based
In test [1] the target is T1, Human P2X1 receptor (P2X1R) (Homo sapiens, UniProt P51575).
T1 construct: expressed in transfected cells; host or cells: HEK-293
T1 sequence (P51575 1-399): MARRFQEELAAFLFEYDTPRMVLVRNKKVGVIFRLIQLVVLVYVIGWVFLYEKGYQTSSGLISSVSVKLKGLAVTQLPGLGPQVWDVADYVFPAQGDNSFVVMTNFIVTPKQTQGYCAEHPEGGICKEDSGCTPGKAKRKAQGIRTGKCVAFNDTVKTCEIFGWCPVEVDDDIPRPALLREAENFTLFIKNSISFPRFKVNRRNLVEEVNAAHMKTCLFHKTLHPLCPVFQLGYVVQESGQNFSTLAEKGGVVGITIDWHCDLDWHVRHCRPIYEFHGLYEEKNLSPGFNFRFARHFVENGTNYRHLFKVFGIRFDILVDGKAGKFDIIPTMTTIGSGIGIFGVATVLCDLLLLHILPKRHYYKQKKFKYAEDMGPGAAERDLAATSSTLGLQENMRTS
The test is described as follows: Receptor-mediated calcium entrance assay (Calcium Assay), P2X1R transfected HEK-293 cells. The settings on record: ATP 20 μM stimulus; for remaining activity at 5 µM: HEK293, compound at 5 μM, read-out: Percentage of activity remains in the presence of the compound at 5 μM, P2X1R (Calcium Assay). From the text:
(§1) Human P2X1 receptor (P2X1R) is a member of P2X family. […] Thus, the calcium assay was used. In the calcium assay, P2X receptor activation leads to opening of ion channels, which increases intracellular calcium concentration. The increased intracellular calcium concentration can be detected by a calcium indicator dye such as Fluo-4 or Fluo-8. Molecular Probes™ Fluo-4, AM (Cat. No. F14201 from Fisher Scientific) was used in the assay. The procedures were similar as described in the Yo-Pro-1 assay until day 4. The construct of P2X1R for transient transfection to HEK-293 cells was the courtesy from Dr. Richard J. Evans laboratory (J. Biol. Chem. 279:9043-9055). After transfection and expression, on day 4 cells were washed twice by Ca-HBSS (The composition (in mM) was NaCl 135, HEPES 10, D-glucose 10, KCl 5.4, CaCl2 2, and MgCl2 1, pH to 7.4 by NaOH) and incubated in dye loading solution (The solution contained 2.5 μM Fluo-4, 1 mM probenecid, and 1× PowerLoad (Cat. No. P10020 from Fisher Scientific) in Ca-HBSS) for 70 minutes at 37° C. Then the extracellular loading dye was washed away and cells were incubated at Ca-HBSS containing 1 mM probenecid for 30 minutes. Before the final steps, probenecid was washed away with Ca-HBSS. The assay was performed by adding 25 μl of Ca-HBSS followed by 25 μl of various test compounds. At this point, the base level of fluorescence was obtained through the microplate reading—the base microplate reading for this assay. At the end, the stimulus (ATP at 20 μM was the final concentration for P2X1R) was added to activate the P2X1R. Activation of P2X1R opened the channel to allow influx of calcium, which was represented by fluorescence increases that were measured by the microplate device with excitation at 475 nm and emission wavelength in the range of 500-550 nm. The data were analyzed the same way as described before: The result of each well was first normalized by its corresponding base microplate reading. Then, the negative control signal was subtracted from. In the negative control, the test compound and the stimulus were replaced by Ca-HBSS. […] An average of six highest values of the plate (AVG) were considered as 100% and the value of each well was divided by AVG and presented as the relative values in percentages.

Another test deals with T2, P2X2R (Homo sapiens, UniProt Q9UBL9).
T2 construct: expressed in transfected cells; host or cells: HEK-293
T2 sequence (Q9UBL9 1-471): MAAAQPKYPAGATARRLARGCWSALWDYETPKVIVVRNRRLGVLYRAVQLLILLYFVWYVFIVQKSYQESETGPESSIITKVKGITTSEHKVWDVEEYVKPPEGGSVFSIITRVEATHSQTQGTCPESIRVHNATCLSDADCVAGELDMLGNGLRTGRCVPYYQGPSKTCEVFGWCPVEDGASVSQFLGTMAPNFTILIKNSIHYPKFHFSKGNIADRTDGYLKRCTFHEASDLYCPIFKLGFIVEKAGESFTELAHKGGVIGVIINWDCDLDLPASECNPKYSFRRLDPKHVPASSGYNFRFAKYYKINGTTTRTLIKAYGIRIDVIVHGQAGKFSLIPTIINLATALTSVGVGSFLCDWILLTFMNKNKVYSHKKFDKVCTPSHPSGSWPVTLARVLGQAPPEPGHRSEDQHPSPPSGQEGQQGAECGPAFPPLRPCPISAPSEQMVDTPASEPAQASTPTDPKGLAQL
Briefly: Receptor-mediated calcium entrance assay (Calcium Assay), P2X2R. As to conditions: for remaining activity at 5 µM: compound at 5 μM, read-out: Percentage of activity remains in the presence of the compound at 5 μM, P2X2R (Calcium Assay).

Test [2] concerns the target T3, Human P2X4 receptor (P2X4R) (Homo sapiens, UniProt Q99571).
T3 construct: expressed in transfected cells; host or cells: HEK-293
T3 sequence (Q99571 1-388): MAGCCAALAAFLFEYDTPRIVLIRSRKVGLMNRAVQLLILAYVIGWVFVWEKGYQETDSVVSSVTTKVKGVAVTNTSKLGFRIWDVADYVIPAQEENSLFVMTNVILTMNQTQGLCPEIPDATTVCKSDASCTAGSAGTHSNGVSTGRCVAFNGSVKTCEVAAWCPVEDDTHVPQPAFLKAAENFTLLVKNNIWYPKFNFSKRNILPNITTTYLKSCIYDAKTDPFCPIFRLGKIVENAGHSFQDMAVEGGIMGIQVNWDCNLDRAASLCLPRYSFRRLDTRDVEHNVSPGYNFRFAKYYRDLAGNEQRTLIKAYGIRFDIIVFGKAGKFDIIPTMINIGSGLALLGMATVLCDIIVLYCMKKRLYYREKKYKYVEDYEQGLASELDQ
Briefly: Receptor-mediated calcium entrance assay (Calcium Assay), P2X4R transfected HEK-293 cells. As to conditions: HEK293, compound at 5 μM, 1 mM ATP stimulus, read-out: Percentage of activity remains in the presence of the compound at 5 μM, P2X4R (Calcium Assay).
Source text: as §1
Human P2X4 receptor (P2X4R) construct (J. Biol. Chem. 290, 7930-7942) was transiently transfected to HEK-293 cells and the calcium assay was performed as described above. When 1 mM ATP was used as stimulus, an increased receptor mediated activity leading to intracellular calcium elevation can be seen in less than 10 minutes.

The results in this text go back to patent US20220380310A1, “P2X7R ANTAGONISTS” (priority 2019, published 2022).

Structures are written as SMILES.

Take `CS(=O)(=O)c1ccc(N2CCCC(NC(=O)CCc3ccccc3)C2)cc1` (centres unmarked) [#1]: the remaining activity at 5 µM came to 56.5% in test [1], 61.3% at P2X2R and 71.9% in test [2].
As for `COc1ccc(S(=O)(=O)N2CCCC(NC(=O)CCc3ccccc3)C2)cc1` (centres unmarked) [#2], the remaining activity at 5 µM in test [1] was 39.1%; on P2X2R it was 85.7%; in test [2] it was 56.4%.
Taken in the same sequence, the figures for `O=C(CCc1ccccc1)NC1CCCN(S(=O)(=O)c2ccc(F)cc2)C1` (centres unmarked) [#3] were 33.3%, 98% and 67%.
On to `O=C(CCc1ccccc1)NC1CCCN(S(=O)(=O)c2ccc(OCc3ccccc3)cc2)C1` (centres unmarked) [#4], for which the results for the remaining activity at 5 µM (in test [1]; at P2X2R; in test [2]) were 43.7%, 83.7% and 56.9%, respectively.
On the same counts, the results for `O=C(CCc1ccccc1)NC1CCCN(S(=O)(=O)c2ccc(N3CCCCC3)cc2)C1` (centres unmarked) [#5] are 59.6%, 87.8% and 53.1%.
Turning to `CC(C)COc1ccc(S(=O)(=O)N2CCCC(NC(=O)CCc3ccccc3)C2)cc1` (centres unmarked) [#6], the remaining activity at 5 µM in test [1] came out at 51%; at P2X2R, 55.2%; in test [2], 98.9%.
On the same counts, the results for `CC(C)S(=O)(=O)c1ccc(N2CCCC(NC(=O)CCc3ccccc3)C2)cc1` (centres unmarked) [#7] are 65.6%, 78.8% and 76.8%.
Taken in the same sequence, the figures for `O=C(CCc1ccccc1)NC1CCCN(S(=O)(=O)Cc2ccc(Br)cc2)C1` (centres unmarked) [#8] were 67%, 94.6% and 50.9%.
Taken in the same sequence, the figures for `O=C(CCc1ccccc1)NC1CCCN(S(=O)(=O)c2ccc(-n3cc(Br)cn3)cc2)C1` (centres unmarked) [#9] were 92.8%, 61.3% and 84.5%.
As for `O=S(=O)(c1ccccc1)C1CN(S(=O)(=O)c2ccc(N3CCCCC3)cc2)C1` [#10], the remaining activity at 5 µM in test [1] was 51.5%; at P2X2R, 69.3%; in test [2], 69.5%.
Taken in the same sequence, the figures for `O=S(=O)(c1ccccc1)C1CN(S(=O)(=O)c2ccc(N3CCOCC3)cc2)C1` [#11] were 44.3%, 52% and 59.6%.
Taken in the same sequence, the figures for `O=C(CCc1ccccc1)NC1CCCN(S(=O)(=O)c2ccc(N3CCOCC3)cc2)C1` (centres unmarked) [#12] were 52.8%, 64.8% and 69.1%.
Consider `O=C(CCc1ccccc1)NC1CCCN(S(=O)(=O)c2ccc(N3CCCC3)cc2)C1` (centres unmarked) [#13], for which the figures for the remaining activity at 5 µM (in test [1]; on P2X2R; in test [2]) were 54.2%, 67.4% and 88.8%, respectively.
Taken in the same sequence, the figures for `CN(C)c1ccc(S(=O)(=O)N2CCCC(NC(=O)CCc3ccccc3)C2)cc1` (centres unmarked) [#14] were 63.9%, 72.7% and 70.9%.
On to `CCCCNc1ccc(S(=O)(=O)N2CCCC(NC(=O)CCc3ccccc3)C2)cc1` (centres unmarked) [#15], for which the remaining activity at 5 µM in test [1] is 70.1%; at P2X2R, 80.4%; in test [2] it was 63.8%.
On the same counts, the results for `O=C1CCC(N2Cc3c(NC(=O)CCc4ccccc4)cccc3C2=O)C(=O)N1` (centres unmarked) [#16] are 51.5%, 77% and 60.7%.
On the same counts, the results for `COCCOc1ccc(S(=O)(=O)N2CCCC(NC(=O)CCc3ccccc3)C2)cc1` (centres unmarked) [#17] are 60.9%, 64.9% and 77.6%.
As for `CN1CCN(c2ccc(S(=O)(=O)N3CCCC(NC(=O)CCc4ccccc4)C3)cc2)CC1` (centres unmarked) [#18], the values for the remaining activity at 5 µM (in test [1]; at P2X2R; in test [2]) were 62.3%, 73.1% and 61.6%, respectively.
Taken in the same sequence, the figures for `O=C(NCCc1ccccc1)C1CCN(S(=O)(=O)c2ccc(N3CCCCC3)cc2)CC1` [#20] were 75.4%, 68.1% and 50.6%.
With `O=C(NCCc1ccccc1)C1CCN(S(=O)(=O)c2ccc(N3CCCC3)cc2)CC1` [#21], the remaining activity at 5 µM in test [1] amounted to 50.2%; at P2X2R, 94.3%; in test [2], 31%.
On the same counts, the results for `CC(C)(C)OC(=O)N1CCN(c2ccc(S(=O)(=O)N3CCC(C(=O)NCCc4ccccc4)CC3)cc2)CC1` [#22] are 59.2%, 85.8% and 42.1%.
Taken in the same sequence, the figures for `O=C(NCCc1ccccc1)C1CCN(S(=O)(=O)c2ccc(N3CCOCC3)cc2)CC1` [#23] were 75.5%, 57.7% and 70.7%.
`O=C(NCCc1ccccc1)C1CCCN(S(=O)(=O)c2ccc(N3CCOCC3)cc2)C1` (centres unmarked) [#24]: the figures for the remaining activity at 5 µM (in test [1]; at P2X2R; in test [2]) were 66.3%, 73.5% and 68.1%, respectively.
On the same counts, the results for `O=C(NCCc1ccccc1)C1CCCN(S(=O)(=O)c2ccc(N3CCCC3)cc2)C1` (centres unmarked) [#25] are 66.1%, 70% and 61%.
`Cc1nc(N=Nc2ccc(S(=O)(=O)[O-])cc2S(=O)(=O)[O-])c(COP(=O)([O-])[O-])c(C=O)c1O.[Na+].[Na+].[Na+].[Na+]` [PPADS, Pyridoxalphosphate-6-azophenyl-2′,4′-disulfonic acid tetrasodium, reference compound]: the “Percentage of activity remains in the presence of the compound at 5 μM, P2X1R (Calcium Assay)” value in test [1] was determined as 26.7%. Moreover, the “Percentage of activity remains in the presence of the compound at 5 μM, P2X2R (Calcium Assay)” value on P2X2R worked out at 6.2%.
